Reference: patent publication US4110472A, “Derivatives of 1-(disubstituted phenoxy)-3-amino-2-hydroxypropanes” (Bayer Aktiengesellschaft, priority 1975, dated 1978)
Structures can show the parent of a compound that is named as a salt.

Assays:
[1] = tested on: amnesia induced by electric shock; experiment: Protective action against amnesia induced by electric shock in male mice; type: in vivo; conditions: vs propanolol and vincamine; 3 administrations at 24 h intervals, FIGS. 1-5
Excerpt: 1. Protective action against amnesia in male mice A modification of the method of Taber and Banuazizi (Psychopharmacol. 9, 382-91, 1966) was employed. Mice are taught to remain seated in a small compartment of a test cage and not to move into the larger compartment in which an electric shock to the foot were previously received. If a convulsive electric shock is applied to a mouse after it has been so taught, it develops amnesia and forgets the previous experience (the shock to its foot in the larger compartment),and moves from the smaller compartment into the larger compartment. By pre-treating the animals with a test substance, it is possible to determine whether these substances have any protective action against the amnesia produced. Each test substance is administered to the particular animal 3 times at intervals of 24 hours, the last administration being 1 hour before the first test. Two groups are formed for each test; a control group with amnesia and a pre-treated group. For each test group, the average value of the times which have elapsed befoe the barrier is crossed on the 2nd day is calculated. This time is taken as a criterion for the learning capacity.

cerebral blood flow [2] = experiment: Increase in the cerebral blood flow in dogs (133 xenon clearance); type: in vivo; conditions: FIGS. 6A, 6B and 7
Excerpt: (§1) Increase in the cerebral blood flow in cats and dogs Cats (1.8-3.0 kg) and dogs (18-25 kg) of both sexes are rendered analgetic with fentanyl and curarized.

[3] = tested on: 7-minute complete cerebral ischaemia; experiment: Restricted circulation and mortality after a transient total cerebral ischaemia (experimental apoplexy); type: in vivo
Excerpt: Restricted circulation and mortality after a transient total cerebral ischaemia ("experimental apoplexy")
A 7-minute complete cerebral ischaemia is caused in curarized cats by inflating a collar placed around the neck.

in vivo = conditions: mouse
cerebral blood flow [4] = experiment: Increase in the cerebral blood flow in cats (133 xenon clearance); conditions: for increase the cerebral blood flow (in words) / activity on cerebral blood flow (in words): cats; for increase the cerebral blood flow (in words): Tables 1 and 2, FIGS. 6A, 6B and 7; for action on cerebral blood flow at lower doses vs comparison substances: intravenous administration; for activity on cerebral blood flow (in words): peroral
Excerpt: as §1

Compound	protective action against amnesia induced by electric shock [1]	increase the cerebral blood flow (in words) (cerebral blood flow [2])	restriction in the cerebral blood flow after a 7-minute cerebral ischaemia ([3]; cats, pretreated 50 mg/kg perorally)	mortality after 7-minute cerebral ischaemia (cats died) ([3]; pretreated 50 mg/kg perorally, 94% of controls died within 48 hours, significant)	LD50 (in vivo; iv)	LD50 (in vivo; po)	increase the cerebral blood flow (in words) (cerebral blood flow [4])	action on cerebral blood flow at lower doses vs comparison substances (cerebral blood flow [4])	activity on cerebral blood flow (in words) (cerebral blood flow [4]; at 50 and 25 mg/kg)	LD50 (in vivo; iv, mice, intravenously)	LD50 (in vivo; po, mice, orally)	activity on cerebral blood flow (in words) (cerebral blood flow [4]; 50 mg/kg)	activity in the experimental apoplexy test (in words) ([3]; cats)
C/C=C/c1ccc(OCC)c(OCC(O)CNC(c2ccccc2)c2ccccc2)c1 (stereo not drawn) [Compound A, 1-(2-ethoxy-5-trans-propenylphenoxy)-2-hydroxy-3-diphenylmethylaminopropane hydrochloride]	considerably more effective	significantly increase	no restriction	33%	80 mg/kg	> 2000 mg/kg	significantly increase	stronger than that of the comparison substances	distinct action	–	–	–	–
C=CCc1ccc(OCC(O)CNC(c2ccccc2)c2ccccc2)c(OC)c1.Cl (centres unmarked) [Compound B, 1-(2-methoxy-4-allylphenoxy)-2-hydroxy-3-diphenylmethylaminopropane hydrochloride]	considerably more effective	significantly increase	–	–	–	–	significantly increase	stronger than that of the comparison substances	distinct action	43 mg/kg	450 mg/kg	–	–
OC(CNC(c1ccccc1)c1ccccc1)COc1ccc(Cl)c(Cl)c1 (centres unmarked) [Compound D, 1-(3,4-dichlorophenoxy)-2-hydroxy-3-diphenylmethylaminopropane]	considerably more effective	significantly increase	–	–	–	–	significantly increase	stronger than that of the comparison substances	distinct action	76 mg/kg	> 2000 mg/kg	–	–
C/C=C/c1ccc(OCC)c(OCC(O)CNC2c3ccccc3-c3ccccc32)c1 (stereo not drawn) [Compound C, 1-(2-ethoxy-5-trans-propenylphenoxy)-2-hydroxy-3-(9-fluorenylamino)-propane]	–	significantly increase	–	–	–	–	significantly increase	stronger than that of the comparison substances	distinct action	85 mg/kg	> 2000 mg/kg	–	–
CN(C)CCCOC1(Cc2ccccc2)CCCCCC1 [bencyclan, reference compound]	–	–	–	–	–	–	–	–	–	33 mg/kg	> 2000 mg/kg	inactive	–
CC[C@]12CCCN3CCc4c(n(c5ccccc45)[C@@](O)(C(=O)OC)C1)[C@@H]32 [vincamine, reference compound]	–	–	–	–	–	–	–	–	–	95 mg/kg	460 mg/kg	–	inactive
